These are literature values, as cited in patent publication US9085793B2, “Ex vivo methods to identify circulating drug metabolites with drug interaction potential” (XPD Consulting, LLC, priority 2012, dated 2015).

Read-outs that look alike come from different tables or passages of the source.

Data set [1] relates to CYP3A. The conditions noted are these: CYP 3A; in vivo inhibitory potential of metabolite over that of parent drug.
Data set [2] concerns T1, CYP3A.
T1 construct: rows headed: Ki Parent Drug (P); other: CYP 3A; parent drug; Ki Metabolite (M); metabolite; [I]/Ki Parent Drug (P); [I]/Ki Metabolite (M)
The conditions noted are these: CYP 3A; metabolite.

Data set [3] concerns the target T2, CYP2D6 (Homo sapiens, UniProt P10635). The settings on record: CYP 2D6; for IPM/IPP: in vivo inhibitory potential of metabolite over that of parent drug; for Ki: read-out: Ki Metabolite, metabolite.
Data set [4] addresses T3, CYP2C9 (Homo sapiens, UniProt P11712).
For data set [5] the following is noted: in vivo.
The target in data set [6] is T3, CYP2C9. This is another data set of the same source.
For the next data set, the target named is CYP3A4 (Homo sapiens, UniProt P08684). The conditions noted are these: human hepatocytes.
Sequence of CYP3A4 (P08684 whole entry): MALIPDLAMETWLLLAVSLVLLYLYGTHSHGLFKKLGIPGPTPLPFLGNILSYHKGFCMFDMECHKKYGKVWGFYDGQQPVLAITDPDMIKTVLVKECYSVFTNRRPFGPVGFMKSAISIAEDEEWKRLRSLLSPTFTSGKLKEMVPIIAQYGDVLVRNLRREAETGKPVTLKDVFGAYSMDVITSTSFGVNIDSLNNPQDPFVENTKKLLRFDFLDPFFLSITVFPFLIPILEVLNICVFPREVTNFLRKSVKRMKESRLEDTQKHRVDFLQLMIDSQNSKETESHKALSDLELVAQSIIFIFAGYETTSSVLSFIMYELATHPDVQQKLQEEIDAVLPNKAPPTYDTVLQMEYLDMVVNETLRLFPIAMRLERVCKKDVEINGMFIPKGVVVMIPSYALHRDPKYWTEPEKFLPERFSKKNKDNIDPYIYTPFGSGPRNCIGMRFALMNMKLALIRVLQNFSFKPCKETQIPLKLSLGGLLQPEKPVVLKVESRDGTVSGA
Data set [7] deals with T2, CYP2D6. The conditions noted are these: human hepatocytes.
Data set [8] has as its target T3, CYP2C9. The settings on record: read-out: Ki Metabolite, CYP 2C9.
Data set [9] has as its target T2, CYP2D6. The conditions noted are these: human liver microsomes.
Where [10] appears, read: circulating plasma level (in vivo concentration) of metabolite.

T2 sequence (P10635 whole entry): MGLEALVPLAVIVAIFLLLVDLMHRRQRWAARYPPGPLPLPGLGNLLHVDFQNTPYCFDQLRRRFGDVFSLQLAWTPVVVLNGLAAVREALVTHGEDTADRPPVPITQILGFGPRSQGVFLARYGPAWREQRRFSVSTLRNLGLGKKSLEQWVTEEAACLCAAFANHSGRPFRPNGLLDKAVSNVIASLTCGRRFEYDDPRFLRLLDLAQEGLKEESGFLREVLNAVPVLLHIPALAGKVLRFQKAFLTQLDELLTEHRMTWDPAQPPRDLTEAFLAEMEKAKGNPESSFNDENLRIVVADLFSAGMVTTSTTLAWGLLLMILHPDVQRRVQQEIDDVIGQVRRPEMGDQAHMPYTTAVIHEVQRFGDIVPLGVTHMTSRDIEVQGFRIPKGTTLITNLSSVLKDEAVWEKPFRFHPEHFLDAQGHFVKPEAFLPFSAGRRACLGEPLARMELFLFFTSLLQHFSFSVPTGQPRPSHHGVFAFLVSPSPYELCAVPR
T3 sequence (P11712 whole entry): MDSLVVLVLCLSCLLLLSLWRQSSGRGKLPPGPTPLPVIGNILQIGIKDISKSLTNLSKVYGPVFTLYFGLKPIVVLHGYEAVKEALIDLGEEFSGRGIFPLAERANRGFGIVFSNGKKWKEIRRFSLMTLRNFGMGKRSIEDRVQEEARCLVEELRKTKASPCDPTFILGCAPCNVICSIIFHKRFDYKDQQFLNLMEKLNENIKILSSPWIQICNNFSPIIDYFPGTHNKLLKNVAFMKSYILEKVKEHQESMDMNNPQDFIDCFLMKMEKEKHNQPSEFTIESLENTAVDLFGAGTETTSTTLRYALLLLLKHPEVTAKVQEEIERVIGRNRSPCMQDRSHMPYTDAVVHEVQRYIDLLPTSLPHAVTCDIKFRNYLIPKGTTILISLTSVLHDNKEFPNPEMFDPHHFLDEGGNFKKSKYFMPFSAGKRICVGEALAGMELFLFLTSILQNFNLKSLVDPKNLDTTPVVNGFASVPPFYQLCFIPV

In the case of `CC(C)c1c(C(=O)Nc2ccccc2)c(-c2ccccc2)c(-c2ccc(F)cc2)n1CC[C@@H]1C[C@@H](O)CC(=O)O1` [Atorvastatin lactone], in the data set on CYP3A [1], the IPM/IPP is 5.5. Besides, the Ki in the data set on CYP3A [2] was 0.9 µM. For the same molecule, under setting [10], the “[I] Metabolite (M)” value was 3e-09 M.
For `CCNCc1cc(Nc2ccnc3cc(Cl)ccc23)ccc1O` [Desethylamodiaquine], on CYP2D6 [3], the IPM/IPP is 5.1 and the Ki was 4.1 µM. For the same molecule, the “[I] Metabolite (M)” value under setting [10] is 8.2e-07 M.
Regarding `O=C(O)Cc1ccccc1Nc1c(Cl)cccc1Cl` [Diclofenac], at CYP2C9 [4], the “Increase in Km on adding plasma (in words, FIG. 6)” value is given as “relatively large increase in Km” and the “Increase in Km on addition of plasma” value is on record as “more than 40 fold”.
As to `CC(NC(C)(C)C)C(O)c1cccc(Cl)c1` (centres unmarked) [Erythrobupropion], on CYP2D6 [3], the IPM/IPP is given as 15.3 and the Ki is 1.7 µM. Under setting [10], the “[I] Metabolite (M)” value is 3.7e-07 M.
In the case of `CNCCC(Oc1ccc(C(F)(F)F)cc1)c1ccccc1` (centres unmarked) [Fluoxetine], the Plasma half-life in data set [5] is 96 to 140 h.
In the case of `C[C@H]1NC(C)(C)CO[C@]1(O)c1cccc(Cl)c1` [Hydroxybupropion], at CYP2D6 [3], the IPM/IPP is on record as 17.0 and the Ki was 13 µM. For the same molecule, the “[I] Metabolite (M)” value under setting [10] was 3.2e-06 M.
`Clc1ccc(COC(Cn2ccnc2)c2ccc(Cl)cc2Cl)c(Cl)c1` (centres unmarked) [Miconazole]: the figures for the IC50 on CYP2C9 [6] and at CYP2C9 [6] (hepatocytes) were 2.02 ± 0.37 µM and 2.12 ± 0.37 µM, respectively.
Consider `Cc1ncc2n1-c1ccc(Cl)cc1C(c1ccccc1F)=NC2` [Midazolam], for which the “Increase in Km” value on CYP3A4 (plasma versus medium) was 5.7 fold. Also, the Km on CYP3A4 (read-out: Km Medium, cell culture medium (HMM)) was 8.11 ± 0.65 µM; on CYP3A4 (read-out: Km Plasma, human plasma) it was 45.8 ± 4.38 µM.
For the molecule `CCCCc1oc2ccccc2c1C(=O)c1cc(I)c(OCCNCC)c(I)c1` [N-Desethylamiodarone], the “[I] Metabolite (M)” value (in vivo) is 1.5e-06 M.
Take `CNCCCN1c2ccccc2CCc2ccc(Cl)cc21` [N-Desmethylclomipramine]: at CYP2D6 [3], the IPM/IPP is given as 4.2 and the Ki was 7.9 µM. For the same molecule, where the note is “in vivo”, the “[I] Metabolite (M)” value is 4.9e-07 M.
For the molecule `CNCC(c1ccc(OC)cc1)C1(O)CCCCC1` (centres unmarked) [N-Desmethylvenlafaxine], under “in vivo”, the “[I] Metabolite (M)” value is 9.3e-07 M.
As to `NCCC(Oc1ccc(C(F)(F)F)cc1)c1ccccc1` (centres unmarked) [Norfluoxetine], on CYP2D6 [3], the Ki is 0.2 µM. Also, the Plasma half-life result in data set [5] was “about 16 days”.
`Cc1nc2n(c(=O)c1CCN1CCC(c3noc4cc(F)ccc34)CC1)CCCC2O` (centres unmarked) [Paliperidone]: the IPM/IPP on CYP2D6 [3] is 1.0; in the data set with CYP3A [1] it was 2.0. Moreover, the Ki was 16 µM on CYP2D6 [3] and 80 µM with CYP3A [2]. Besides, the “[I] Metabolite (M)” value under setting [10] was 4.6e-08 M.
On to `OC(CCCN1CCC(O)(c2ccc(Cl)cc2)CC1)c1ccc(F)cc1` (centres unmarked) [Reduced haloperidol], for which, at CYP2D6 [3], the IPM/IPP is given as 1.3 and the inhibition constant (Ki) was 0.24 µM. Under setting [10], the “[I] Metabolite (M)” value is 8e-09 M.
Take `CN[C@H]1CC[C@@H](c2ccc(Cl)c(Cl)c2)c2ccccc21` [Sertraline]: the IC50 on CYP2D6 [7] (human plasma, read-out: IC50 Plasma) is 13.1 ± 3.49 µM; on CYP2D6 [7] (medium, read-out: IC50 Medium), 3.1 ± 0.34 µM.
For the molecule `Nc1ccc(S(=O)(=O)Nc2ccnn2-c2ccccc2)cc1` [Sulfaphenazole], on CYP2C9 [6] (addition of plasma to human hepatocytes or human liver microsomes), the “IC50 increased on addition of plasma” value is reported as “more than 10 fold”.
For `O=C1C(CCSc2ccccc2)C(=O)N(c2ccccc2)N1c1ccccc1` [Sulfinpyrazone sulfide], the Ki at CYP2C9 [8] was 27 µM.
Consider `C[C@H](NC(C)(C)C)[C@@H](O)c1cccc(Cl)c1` [Threobupropion], for which, at CYP2D6 [3], the IPM/IPP is given as 24.8 and the Ki is 5.4 µM. Under setting [10], the “[I] Metabolite (M)” value is 1.9e-06 M.
As to `COc1ccc2c(c1)[C@]13CCCC[C@@H]1[C@H](C2)N(C)CC3` [dextromethorphan], at CYP2D6 [9], the “Increase in Km on adding plasma (in words, FIG. 6)” value is listed as “relatively small increase in Km” and the “Increase in Km on addition of plasma” value is given as “less than six”.
